Read-outs that look alike come from different tables or passages of the source.
Test system: H460 cells
Experiment: Antiproliferation assay (multi-well Alamar Blue based)
Format: cell-based, human
Method: To determine the effect of the compounds of the invention on cell proliferation, the antiproliferative activity of these compounds was tested in a multi-well Alamar Blue based assay (at 2 h and 3 days). Cell growth in the presence and absence of the test compound was compared, as measured by a fluorescence plate reader at excitation 550 nm and emission 590 nm (see Biosource International Inc., Tech Application Notes, Use of Alamar Blue in the measurement of Cell Viability and Toxicity, Determining IC50). […] After 24 hours, these plates were divided into 3 groups—Control group, 2 h treatment group, and 3 day treatment group. A test compound was added to each plate in the treatment groups (2 h and 3 day) at various concentration (in 50 μl of medium). In the 2 h treatment group, after 2 h the cells were rinsed to remove the test compound and incubated for 3 days, followed by staining with AlamarBlue. The cells in the 3 day treatment group were incubated for 3 days, followed by staining with AlamarBlue. In the Control group, AlamarBlue was added to the plate at (i) day 0 and (ii) day 3 and measured to establish the control reading.

| GI50 (assay time period not stated) | GI90 (assay time period not stated) | GI90 (3 day treatment, AlamarBlue, GI90 also referred to as IC90) [nM] | GI50 (Homo sapiens, NCI-H460, 72 h, 3 day treatment, AlamarBlue, GI50 also referred to as IC50, read-out: GI50) [nM] | Structure (SMILES) |
| --- | --- | --- | --- | --- |
| not determinable | not determinable | – | – | COc1cc2c(cc1OC)-c1nc3cc4c(cc3n1C(CCCN(C)C)N2)OCO4 (stereo not shown) [Compound 7] |
| – | – | 1000 | 600 | COc1cc2c(cc1OC)n(CCN(C)C)c(=O)n1c3cc4c(cc3nc21)OCO4 [Compound 14] |
